PubChem BioAssay AID256 (DTP/NCI, 2004)
Several values for one entry are separate records, joined by “and”; a condition that tells them apart may be missing. Equal values may be shown once. Toxic doses and inconclusive results are not listed. How the source made its calls: active means survival T/C of 150% or more; inactive means T/C below 125% in these data.

System: CD2F1 mice, L1210 leukemia ip, survival T/C
Assay: NCI In Vivo Anticancer Drug Screen. Data for tumor model L1210 Leukemia (intraperitoneal) in CD2F1 (CDF1) mice
Details: higher = longer survival
How it was run: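 Vehicle-treated tumor-bearing mice served as controls (C) for compound-treated mice (T). Reported figure is T divided by C.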

[1] = endpoint: mean survival time, dose: 100.0 mg/kg/injection, schedule: Q01DX009 (ip), vehicle: saline with Tween-80
[2] = endpoint: mean survival time, dose: 200.0 mg/kg/injection, schedule: Q01DX009 (ip), vehicle: saline with Tween-80
[3] = endpoint: mean survival time, dose: 400.0 mg/kg/injection, schedule: Q01DX009 (ip), vehicle: saline with Tween-80
[4] = endpoint: mean survival time, dose: 100.0 mg/kg/injection, schedule: Q01DX009 (ip), vehicle: Klucel (hydroxypropylcellulose) (HPC)
[5] = endpoint: mean survival time, dose: 200.0 mg/kg/injection, schedule: Q01DX009 (ip), vehicle: Klucel (hydroxypropylcellulose) (HPC)
[6] = endpoint: mean survival time, dose: 400.0 mg/kg/injection, schedule: Q01DX009 (ip), vehicle: Klucel (hydroxypropylcellulose) (HPC)
[7] = endpoint: mean survival time, dose: 100.0 mg/kg/injection, schedule: Q04DX003 (ip), vehicle: saline with Tween-80
[8] = endpoint: mean survival time, dose: 200.0 mg/kg/injection, schedule: Q04DX003 (ip), vehicle: saline with Tween-80
[9] = endpoint: mean survival time, dose: 400.0 mg/kg/injection, schedule: Q04DX003 (ip), vehicle: saline with Tween-80
[10] = endpoint: mean survival time, dose: 50.0 mg/kg/injection, schedule: Q01DX009 (ip), vehicle: saline
[11] = endpoint: mean survival time, dose: 100.0 mg/kg/injection, schedule: Q01DX009 (ip), vehicle: saline
[12] = endpoint: mean survival time, dose: 200.0 mg/kg/injection, schedule: Q01DX009 (ip), vehicle: saline

Measured: T/C

ClC(Cl)=C(c1ccc(Cl)cc1)c1ccc(Cl)cc1
inactive: [1] 103 % of control | [2] 97 % of control | [3] 101 % of control

Cc1noc(C)c1CC1(c2ccccc2)CCCCC1=O (stereo not given)
inactive: endpoint: mean survival time, dose: 100.0 mg/kg/injection, schedule: Q01DX001 (ip), vehicle: Klucel (hydroxypropylcellulose) (HPC) 92 % of control | endpoint: mean survival time, dose: 200.0 mg/kg/injection, schedule: Q01DX001 (ip), vehicle: Klucel (hydroxypropylcellulose) (HPC) 92 % of control | endpoint: mean survival time, dose: 400.0 mg/kg/injection, schedule: Q01DX001 (ip), vehicle: Klucel (hydroxypropylcellulose) (HPC) 86 % of control

CC(=O)OC1(C)CC(C)(C)N=N1 (stereo not given)
inactive: endpoint: mean survival time, dose: 25.0 mg/kg/injection, schedule: Q01DX009 (ip), vehicle: Klucel (hydroxypropylcellulose) (HPC) 97 % of control | endpoint: mean survival time, dose: 50.0 mg/kg/injection, schedule: Q01DX009 (ip), vehicle: Klucel (hydroxypropylcellulose) (HPC) 99 % of control | [4] 97 % of control | [5] 97 % of control | [6] 97 % of control

O=C(O)c1cccc2[nH]c(=O)oc(=O)c12
inactive: [7] 103 % of control | [8] 95 % of control | [9] 93 % of control

C[CH2][Pb]([CH2]C)([CH2]C)[O]C(=O)c1ccc2ccccc2n1
inactive: endpoint: mean survival time, dose: 0.4 mg/kg/injection, schedule: Q01DX009 (ip), vehicle: saline 103 % of control | endpoint: mean survival time, dose: 0.8 mg/kg/injection, schedule: Q01DX009 (ip), vehicle: saline 103 % of control | endpoint: mean survival time, dose: 1.6 mg/kg/injection, schedule: Q01DX009 (ip), vehicle: saline 101 % of control

C=CC[As](=O)(O)CCC
inactive: endpoint: mean survival time, dose: 25.0 mg/kg/injection, schedule: Q01DX009 (ip), vehicle: saline 100 % of control | [10] 98 % of control | [1] 114 % of control | [11] 97 % of control

Cc1ccc2cc3c(cc2c1C)sc1ccccc13
inactive: endpoint: mean survival time, dose: 8.8 mg/kg/injection, schedule: Q04DX003 (ip), vehicle: other 108 % of control | endpoint: mean survival time, dose: 17.5 mg/kg/injection, schedule: Q04DX003 (ip), vehicle: other 115 % of control | endpoint: mean survival time, dose: 35.0 mg/kg/injection, schedule: Q04DX003 (ip), vehicle: other 108 % of control | endpoint: mean survival time, dose: 70.0 mg/kg/injection, schedule: Q04DX003 (ip), vehicle: other 97 % of control | endpoint: mean survival time, dose: 140.0 mg/kg/injection, schedule: Q04DX003 (ip), vehicle: other 93 % of control

COC(=O)CCN(c1ccccc1)S(=O)(=O)c1ccc(C)cc1
inactive: [4] 98 % of control | [5] 100 % of control | [6] 98 % of control

O=P(Oc1ccccc1)(Oc1ccccc1)C(Nc1ccccc1)c1ccncc1 (stereo not given)
inactive: [7] 93 % of control | [8] 100 % of control | [9] 102 % of control

O=C(O)c1nnc(C(=O)O)nn1
inactive: endpoint: mean survival time, dose: 12.5 mg/kg/injection, schedule: Q01DX009 (ip), vehicle: water 100 % of control | endpoint: mean survival time, dose: 25.0 mg/kg/injection, schedule: Q01DX009 (ip), vehicle: water 100 % of control | endpoint: mean survival time, dose: 50.0 mg/kg/injection, schedule: Q01DX009 (ip), vehicle: water 95 % of control | endpoint: mean survival time, dose: 100.0 mg/kg/injection, schedule: Q01DX009 (ip), vehicle: water 94 % of control

CCOC(=O)C(CC(=O)O)=C1c2ccccc2-c2ccccc21
inactive: endpoint: mean survival time, dose: 25.0 mg/kg/injection, schedule: Q04DX003 (ip), vehicle: Klucel (hydroxypropylcellulose) (HPC) 96 % of control | endpoint: mean survival time, dose: 50.0 mg/kg/injection, schedule: Q04DX003 (ip), vehicle: Klucel (hydroxypropylcellulose) (HPC) 93 % of control | endpoint: mean survival time, dose: 100.0 mg/kg/injection, schedule: Q04DX003 (ip), vehicle: Klucel (hydroxypropylcellulose) (HPC) 87 % of control | endpoint: mean survival time, dose: 200.0 mg/kg/injection, schedule: Q04DX003 (ip), vehicle: Klucel (hydroxypropylcellulose) (HPC) 93 % of control

O=C1CC(C(=O)O)C2(CCCCCC2)O1 (stereo not given)
inactive: endpoint: median survival time, dose: 12.5 mg/kg/injection, schedule: Q04DX003 (ip), vehicle: saline with Tween-80 90 % of control | endpoint: median survival time, dose: 25.0 mg/kg/injection, schedule: Q04DX003 (ip), vehicle: saline with Tween-80 90 % of control | endpoint: median survival time, dose: 50.0 mg/kg/injection, schedule: Q04DX003 (ip), vehicle: saline with Tween-80 100 % of control

CN(Cc1ccc(Cl)cc1)N=Nc1ccc(C#N)cc1
inactive: [1] 98 % of control | [2] 107 % of control | [3] 93 % of control

OC12C3CC4C5C3C3(Cl)C(Cl)(Cl)C5(Cl)C(Cl)(C41)C23Cl (stereo not given)
inactive: endpoint: mean survival time, dose: 1.25 mg/kg/injection, schedule: Q01DX001 (ip), vehicle: other 107 % of control | endpoint: mean survival time, dose: 2.5 mg/kg/injection, schedule: Q01DX001 (ip), vehicle: other 103 % of control | endpoint: mean survival time, dose: 5.0 mg/kg/injection, schedule: Q01DX001 (ip), vehicle: other 100 % of control

O=[N+]([O-])c1ccc2c(N=Nc3c(O)ccc4ccccc34)c(O)cc(S(=O)(=O)O)c2c1
inactive: [10] 119 % of control | [11] 100 % of control | [12] 109 % of control

O=C(O)C(=Cc1ccnc2ccccc12)C(=O)O
inactive: [11] 100 % of control | [7] 111 % of control | [12] 94 % of control | [8] 100 % of control | endpoint: mean survival time, dose: 400.0 mg/kg/injection, schedule: Q01DX009 (ip), vehicle: saline 111 % of control | [9] 98 % of control

CNC(=S)Nc1ccc(C(=O)NC(C)C)cc1
inactive: endpoint: mean survival time, dose: 50.0 mg/kg/injection, schedule: Q01DX009 (ip), vehicle: other 100 % of control | endpoint: mean survival time, dose: 100.0 mg/kg/injection, schedule: Q01DX009 (ip), vehicle: other 95 % of control | endpoint: mean survival time, dose: 200.0 mg/kg/injection, schedule: Q01DX009 (ip), vehicle: other 97 % of control

COC(C[P+](Cc1ccccc1)(c1ccccc1)c1ccccc1)OC
inactive: endpoint: mean survival time, dose: 18.8 mg/kg/injection, schedule: Q04DX003 (ip), vehicle: saline 104 % of control | endpoint: mean survival time, dose: 37.5 mg/kg/injection, schedule: Q04DX003 (ip), vehicle: saline 103 % of control | endpoint: mean survival time, dose: 75.0 mg/kg/injection, schedule: Q01DX001 (ip), vehicle: saline 101 % of control | endpoint: mean survival time, dose: 75.0 mg/kg/injection, schedule: Q04DX003 (ip), vehicle: saline 98 % of control

Cc1ccc(S(=O)(=O)/C=C(/SC#N)C2CCCCC2)cc1
inactive: [1] 96 % of control | [2] 100 % of control | [3] 102 % of control

CCOC(=O)c1ccc(N)c(C(O)(C(F)(F)F)C(F)(F)F)c1
inactive: [7] 103 % of control | [8] 97 % of control | [9] 97 % of control

Nc1ccc(C(=O)Nc2cccc(OCc3nc(N)nc(N)c3-c3ccc(Cl)cc3)c2)cc1
inactive: endpoint: mean survival time, dose: 50.0 mg/kg/injection, schedule: Q01DX001 (ip), vehicle: saline with Tween-80 93 % of control | endpoint: mean survival time, dose: 100.0 mg/kg/injection, schedule: Q01DX001 (ip), vehicle: saline with Tween-80 93 % of control | endpoint: mean survival time, dose: 200.0 mg/kg/injection, schedule: Q01DX001 (ip), vehicle: saline with Tween-80 93 % of control

Cc1c(Cl)ccc(OCC2=NCCN2)c1C
inactive: endpoint: mean survival time, dose: 25.0 mg/kg/injection, schedule: Q04DX002 (ip), vehicle: saline with Tween-80 109 % of control | endpoint: mean survival time, dose: 50.0 mg/kg/injection, schedule: Q04DX002 (ip), vehicle: saline with Tween-80 97 % of control | endpoint: mean survival time, dose: 100.0 mg/kg/injection, schedule: Q04DX002 (ip), vehicle: saline with Tween-80 100 % of control and 102 % of control

O=C1C[C@H]2[C@H](CO)[C@@H](OC(=O)c3ccc(-c4ccccc4)cc3)C[C@H]2O1
inactive: endpoint: mean survival time, dose: 100.0 mg/kg/injection, schedule: Q01DX001 (ip), vehicle: alcohol 94 % of control | endpoint: mean survival time, dose: 200.0 mg/kg/injection, schedule: Q01DX001 (ip), vehicle: alcohol 88 % of control | endpoint: mean survival time, dose: 400.0 mg/kg/injection, schedule: Q01DX001 (ip), vehicle: alcohol 92 % of control
